In a melting point compilation (Tetko et al.; mined from patent text by program, amines drawn as free bases though some values may be those of a salt):

In the case of `CN1CCC(Cc2nc3ccccc3n2Cc2ccc(CO)o2)CC1`, the melting point is reported as 158 °C. In the case of `CON(Cc1ccc(C)c(F)c1)C(=O)C1=C(O)C(=O)N(C)C1`, the melting point is reported as 145 °C. With `CCOC(=O)NC(=O)C1c2ccccc2Oc2c1cccc2C(F)(F)F` (stereo not given) the melting point was 196 to 198 °C. Work on `O=C1C=C/C(=C/c2ccc(F)cc2)O1` yielded a melting point of 140 to 142 °C. Compound `COC(=O)CCCCCCc1nc(C)sc1C(=O)O` has a melting point of 106 to 107 °C. `CCCCCCc1cn(C)cc(-c2cccc(C(F)(F)F)c2)c1=O` gave a melting point of 89.5 to 90.5 °C. In the case of `COc1nc2sccc2c2nc(S(=O)(=O)Nc3c(Cl)cccc3Cl)nn12`, the melting point is reported as 224 to 226 °C. In the case of `Clc1ccc(COC(CNc2ccc(Cl)c(Cl)c2)Cn2ccnc2)c(Cl)c1` (stereo not given), the melting point is reported as 116 to 117 °C. Work on `Cc1c(N2CC(O)C2)c(F)cc2c(=O)c(C(=O)O)cn(-c3cc(N)c(F)cc3F)c12` yielded a melting point of 206 to 208 °C. For `CCOC(=O)/C(=N\OC1CCCCCCC1)c1csc(N)n1`, the melting point was 117 to 118 °C. Work on `Cc1cc(=O)oc2cccc(OC(=S)N(C)C)c12` yielded a melting point of 166 to 168 °C. With `CCC1(CC(=NNc2ccc([N+](=O)[O-])cc2[N+](=O)[O-])C(=O)OC)CCCN2CCc3c([nH]c4ccccc34)C21` (stereo not given) the melting point was 205 to 206 °C. `Fc1cc(N2CCN(CCc3coc4ccc(F)cc34)CC2)c2ncccc2c1` showed a melting point of 55 °C. Work on `O=C(Nc1c(Cl)cncc1Cl)c1ccc(OCC2CC2)c2oc3ccccc3c12` yielded a melting point of 242 °C. `COc1cc(CSCCC(=O)SCc2cc(OC)c(OC)c(OC)c2)cc(OC)c1OC` showed a melting point of 88 to 89 °C. With `O=C(CC1CCCCC1)Nc1c(Cl)ccc2nc(CCCCc3nnn[nH]3)ccc12` the melting point was 192 to 195 °C. With `CCOC(=O)Cn1c(=O)c(-c2ccccc2Cl)cc2cnc(NC3C4CN(Cc5ccccc5)CC43)nc21` (stereo not given) the melting point was 186 to 188 °C. For `C=C(CS(=O)(=O)Cc1ccccc1)c1ccccc1`, the melting point was 118 °C. In the case of `O[C@H]1COC(c2ccc(Cl)cc2)=N[C@@H]1c1ccccc1` (racemic), the melting point is reported as 142 °C. In the case of `CC(Br)c1ccc(-c2ccc(C(=O)c3ccccc3)cc2)cc1` (stereo not given), the melting point is reported as 132 to 134 °C. `CCNC(=O)c1c(Cl)cccc1[Si](C)(C)C(C)(C)C` showed a melting point of 140 to 142 °C. Compound `COc1cccc2c(CCO)c(C)oc12` has a melting point of 58 to 59 °C. `CC(Nc1ccccc1)=C(C#N)C(=O)Nc1ccccc1Cl` showed a melting point of 110 to 112 °C. In the case of `O=C(NCc1ccc(Cl)cc1)c1cnc2ccc(CO)cc2c1O`, the melting point is reported as 288 to 289 °C. For `Nc1nc2ccccc2c2c1nc(O)n2Cc1cccnc1`, the melting point was over 250 °C. `CC(=O)NC[C@H]1CN(c2cc(F)c(N3CCC(n4nnnc4CS(C)(=O)=O)CC3)c(F)c2)C(=O)O1` gave a melting point of 192 °C. `CCOc1cccc(C(C)=O)n1` gave a melting point of 36 to 37 °C. In the case of `NNc1ccc(OCc2ccccc2)cc1`, the melting point is reported as 101 to 103 °C. `C=Cc1cnc2c(NC(=O)c3c(Cl)cccc3Cl)cccc2c1CO` gave a melting point of 243 to 244 °C. `CNC(=O)N(O)Cc1cccs1` showed a melting point of 108 °C. Compound `CCc1cc2c(s1)N(C)C(=O)C(OC(=O)Nc1cccc(C)c1)N=C2c1ccccc1Cl` (stereo not given) has a melting point of 181 to 182 °C. In the case of `CN(C)CCCCCOc1ccc(-c2nnc(CSCCOc3ccccc3)o2)cc1`, the melting point is reported as 51 to 54 °C. Compound `COC(=O)C(=C/c1cc(OC)c(OC)c(OC)c1)/C(=C\c1ccccc1)C(N)=O` has a melting point of 144 to 146 °C. Compound `CCOC(=O)C(C)(C)Oc1ccc(C(=O)Cc2ccccc2)cc1` has a melting point of 110 to 113 °C. Work on `CCCCn1cc(C=C2SC(=S)N(CC(=O)O)C2=O)c2ccccc21` yielded a melting point of 280 to 285 °C. Compound `CSc1cc(C)nc(SC)c1NC(=O)CN1CCN(CCSc2nc3ccccc3s2)CC1` has a melting point of 136 to 139 °C. `CCCOc1ccccc1-c1ncc(NC(C)=O)c(=O)[nH]1` showed a melting point of 195 to 197 °C. Compound `O=C1NCC(c2ccc3[nH]c(-c4ccncc4)cc3c2)=NN1` has a melting point of 313 to 316 °C. Work on `CC(C)c1n[nH]c2c(Nc3cccc(Cl)c3)nc(Cl)nc12` yielded a melting point of 257 to 259 °C. Work on `OC(CCCC(O)c1ccccc1)c1ccccc1` (stereo not given) yielded a melting point of 64 to 67 °C.
